The subject of test [1] is PBMCs. As to the kind of experiment: LL37-specific T-cell help: autoantibodies in PBMC culture supernatants by ELISA. The settings on record: for anti-LL37/anti-cit-LL37 antibodies in culture supernatants: SLE PBMCs, 7 days. The format is cell-based, human. The protocol:
(§1) Anti-native/cit-LL37, other antigen antibodies (anti-DNA and anti-RNA), and total anti-human IgG were measured by ELISA as described. Briefly, 96-well flat-bottom plates (Non-Binding surface polystyrene, Corning, USA) are coated with 2 μg/mL of native LL37/cit-LL37 or control proteins or human DNA or human RNA[9] or anti-human IgG antibody (Sigma) in carbonate buffer (0.1 M NaHCHO3, pH 9) for 2 hours (or over night) and washed four times with PBS 0.1% Tween-20. This washing buffer was used for washing at all steps. The blocking buffer containing 2% bovine serum albumin (BSA, Sigma) in PBS was used for at least 1 hour (or over night) to saturate unspecific binding sites. After washing, sera were diluted at various concentrations (usually 1:100 or 1:200) in PBS 2% BSA (cell culture supernatants were diluted 1:2, 1:4 or 1:10) followed by 1 hour incubation with a horseradish peroxidase–conjugated (HRP) goat anti-human IgG (Sigma-Aldrich), diluted 1:10,000 in PBS. The color was developed for 5 minutes with 3,3’,5,5’-tetramethylbenzidine (TMB) substrate (Sigma-Aldrich). The reaction was stopped by adding 50 μl of 2 N H2SO4, and absorbance determined at 450 nm with a reference wavelength of 540 nm. Anti-dsDNA in sera of lupus patients were detected by the standard clinical test Kallestad Crithidia luciliae Complete Kits for detection and semi-quantitation of autoantibodies to native DNA (nDNA) antigens by indirect fluorescence antibody (IFA) procedure. ELISA for detection of anti-tetanus antibodies (anti-TT) was from Abnova (Taiwan).
Peptide-MHC-tetramer staining of T-cell lines/clones and blood T-cells
Peptide-MHC-tetramers (Table S4) were from ProImmune, (UK), TC Metrix, (CH), Benaroya, (USA) and ImmunAware (Denmark). Staining was performed for 40 minutes at 37°C, followed by staining for CD4 (4°C, 20 minutes). Before flow cytometry-acquisition, cells were labelled with PercP-conjugated 7-AAD to exclude dead cells.
LL37 specific T-cell help for production of autoantibodies
We cultured patient PBMCs with LL37 or control antigens and low doses of hrIL-2 (added at day 6, 10U/mL), and we detected appearance of autoantibodies in the culture supernatants by ELISA at various time points (from 7-to 10 days and, when needed, after a second stimulation with autologous PBMCs and antigen). In parallel, we monitored appearance of markers typical of B-cells/plasma cells (CD20, CD27, CD38, CD138) in the CD3neg cells by flow cytometry.
Immunohistochemistry and laser scanner confocal microscopy (LSM)
We performed staining on […] paraffin or frozen sections of human lupus erythematosus skin specimens obtained from CHUV, Dept. of Dermatology. Staining with anti-cit-LL37 Mabs was performed using the antibodies Mab142 and Mab137 at 1:40 dilution, followed by incubation with a […] (Abcam). HRP and DAB (DAKO) were used to develop the color. Nuclear staining was performed with Mayer’s haematoxylin.
To visualize NETs, we seeded neutrophils on coverslips pre-treated with polylysine and stimulated them with various stimuli to induce release of the NETs. After 3 hours, cells were gently washed and stained with anti-CD15-PE or biotinylated polyclonal rabbit anti-LL37 antibodies (Innovagen), followed by addition of AlexaFluor 488-streptavidin. Frozen or paraffin-included SLE renal biopsies, obtained from Policlinico Umberto I, Rome, IT or CHUV Lausanne, CH, were stained, after saturation with blocking buffer (PBS, 0.05% tween 20, 4% BSA) for 1 hour at room temperature. Bopsies in paraffin were stained after de-paraffination in xilene (5 minutes, two times), followed by passages in: absolute ethanol (3 minutes), 95% ethanol in water (3 minutes), 80% ethanol in water (3 minutes), 70% ethanol in water (3 minutes), and antigen retrieval (5 minutes at […]

In test [2] the test system is PBMCs. As to the kind of experiment: IL-21 production in PBMC cultures (ELISA). Type of test: cell-based, human. The settings on record: SLE (but not in psoriasis). The text has this: analyzed by flow-cytometry (after staining by BrdU-detection kit, BD Pharmingen). Before cloning, bulk-cultures were stimulated with autologous-irradiated PBMCs and peptide over night, and stained for CD3 and CD4 and with the “Cytokine secretion assays kits” (MACS, Miltenyi Biotec) to detect IL-2-, IFN-ɣ- and/or IL-17-secretion and CD38 as an activation marker, and sorted by a cell-sorter (MoFlo Astrios, Beckman Coulter). Dead cells were excluded by DAPI staining. Sorted activated CD4+CD3+ cells, secreting cytokines were cloned by limiting dilution in Terasaki plates (Nunc Microwell, Sigma-Aldrich) in the presence of allogeneic-irradiated (104) PBMCs activated by phytohaemagglutinin (1 µg/mL, PHA, Murex, 0.5 cells/well) and 100 U/mL of hrIL-2. Clones reactivity and HLA-restriction were analyzed using HLA-matched-homozigous B-LCLs, pulsed with […]
Measurement of cytokine production in primary T-cells and T-cell lines/clones Cytokines secretion was detected by ELISA (Quantikine; R&D Systems, Minneapolis, MN) for IL-4, IL-10, IL-17, IFN-ɣ, IL-22, IL-21, or by Th1/Th2 10-Plex and IL-17-Tissue Culture Kits (read by MSD Sector Imager 2400, Meso Scale Discovery, Gaithersburg, MD). Supernatants were harvested from primary cultures at day 3 (day 2 for T-cell lines/clones). Production of cytokines was also analyzed by flow cytometry after culture of PBMCs with LL37/LL37-peptides for 6-7 days. […]

Test [3] has as its system serum antibodies (anti-native LL37/anti-cit-LL37). As to the kind of experiment: ELISA for autoantibody detection in sera. The format is binding, human. The settings on record: for Antibody reactivity of control disease sera compared to SLE: psoriasis, RA, SSc and UC sera. Here is the method:
as §1

The mark [4] stands for this setting: eight SLE patients with T-cell follow-up, successful standard therapy.
Where [5] appears, read: three SLE patients unresponsive to treatment.
Where [6] appears, read: twenty-one SLE patients responding to treatment, 6-to-36 months.

“LLGDFFR(cit)KSKEKIGKEFKR(cit)IVQR(cit)IKDFLR(cit)NLVPR(cit)TES [cit-LL37, citrullinated LL37 (citrullinated at all five arginin positions)]”: the “anti-LL37/anti-cit-LL37 antibodies in culture supernatants” value with PBMCs [1] is reported as “became apparent in culture supernatants”. The “anti-HNPs and anti-TT antibodies” value in the test on PBMCs [1] (SLE cultures) is “did not increase”. Moreover, the “IL-21 production” value with PBMCs [2] was “significant up-regulation”. Moreover, the “Antibody reactivity over time” value in test [3] (setting [4]) is “significantly declined”; in test [3] (setting [5]), “increased”; in test [3] (setting [6]) it was “declined in parallel with SLEDAI reduction”. Besides, in test [3], the “Antibody reactivity of control disease sera compared to SLE” value is on record as “significantly weaker”.

Take “LLGDFFRKSKEKIGKEFKRIVQRIKDFLRNLVPRTES [LL37, native LL37, antimicrobial peptide, 37 aa]”: the “anti-LL37/cit-LL37 antibody production” value in the test with PBMCs [1] (PBMCs of psoriasis patients whose T-cells proliferate to LL37, and HD PBMCs) was “did not lead to significant anti-LL37/cit-LL37 antibody production”. In addition, in the test with PBMCs [1], the “anti-LL37/anti-cit-LL37 antibodies in culture supernatants” value is recorded as “became apparent in culture supernatants”. Further, in the test with PBMCs [1] (SLE cultures), the “anti-HNPs and anti-TT antibodies” value is “did not increase”. For the same substance, the “anti-DNA- and RNA-antibody reactivity” value with PBMCs [1] (SLE cultures, sequential stimulation with autologous PBMCs and native LL37) is “became also detectable”. The “IL-21 production” value with PBMCs [2] is “significant up-regulation”. Further, the “SLE patients with antibody reactivity” value in test [3] (SLE sera, twenty-one (native LL37) and eighteen (cit-LL37) of 40) came out at 53%. Moreover, the “Antibody reactivity over time” value is listed as “significantly declined” in test [3] (setting [4]), “increased” in test [3] (setting [5]) and “declined in parallel with SLEDAI reduction” in test [3] (setting [6]). Besides, the “Antibody reactivity of control disease sera compared to SLE” value in test [3] is on record as “significantly weaker”.

Source of the values: publication PMC7125190, “Native/citrullinated LL37-specific T-cells help autoantibody production in Systemic Lupus Erythematosus” (Scientific Reports, 2020).
